Measurements from ChEMBL document CHEMBL4364348, “Divalent cannabinoid-1 receptor ligands: A linker attachment point survey of SR141716A for development of high-affinity CB1R molecular probes” (Bioorg Med Chem Lett, 2019).

What was measured:
Cannabinoid receptor 1 [1] = molecular target: T1, Cannabinoid receptor 1 (Homo sapiens, UniProt P21554); experiment: Displacement of [3H]CP55940 from human CB1R in HEK293 cell membranes at 10 uM after 60 mins liquid scintillation analysis relative to control
D(2) dopamine receptor = D(2) dopamine receptor (Homo sapiens, UniProt P14416); experiment: Binding affinity to human D2R
Cannabinoid receptor 1 [2] = molecular target: T1, Cannabinoid receptor 1; experiment: Displacement of [3H]CP55940 from human CB1R in HEK293 cell membranes after 60 mins liquid scintillation analysis

Chain of D(2) dopamine receptor (P14416 whole entry): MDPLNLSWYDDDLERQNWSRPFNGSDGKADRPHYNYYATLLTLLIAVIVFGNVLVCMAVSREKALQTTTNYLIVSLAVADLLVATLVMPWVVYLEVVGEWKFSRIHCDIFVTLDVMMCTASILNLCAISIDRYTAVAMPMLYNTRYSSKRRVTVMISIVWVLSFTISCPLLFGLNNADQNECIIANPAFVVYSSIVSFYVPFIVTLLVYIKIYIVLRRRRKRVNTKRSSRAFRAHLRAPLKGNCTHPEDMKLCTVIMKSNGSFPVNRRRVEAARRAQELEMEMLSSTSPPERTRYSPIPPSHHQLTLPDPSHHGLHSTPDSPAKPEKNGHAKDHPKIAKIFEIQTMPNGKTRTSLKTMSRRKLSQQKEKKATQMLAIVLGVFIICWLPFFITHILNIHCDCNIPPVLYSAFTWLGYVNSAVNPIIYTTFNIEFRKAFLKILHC
T1 sequence (P21554 whole entry): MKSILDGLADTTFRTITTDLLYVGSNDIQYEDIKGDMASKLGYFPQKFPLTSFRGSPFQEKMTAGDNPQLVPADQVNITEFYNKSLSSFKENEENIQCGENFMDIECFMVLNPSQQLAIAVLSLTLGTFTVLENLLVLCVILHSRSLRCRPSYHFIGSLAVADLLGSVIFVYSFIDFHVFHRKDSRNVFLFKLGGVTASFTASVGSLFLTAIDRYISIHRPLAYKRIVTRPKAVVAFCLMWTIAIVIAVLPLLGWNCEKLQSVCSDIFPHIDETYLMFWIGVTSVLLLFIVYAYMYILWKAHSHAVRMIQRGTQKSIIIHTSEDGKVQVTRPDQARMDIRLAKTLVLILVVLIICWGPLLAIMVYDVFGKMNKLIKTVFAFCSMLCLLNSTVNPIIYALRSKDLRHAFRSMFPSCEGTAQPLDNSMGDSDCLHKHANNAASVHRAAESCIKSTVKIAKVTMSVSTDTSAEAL

Structure (SMILES)	inhibition (Cannabinoid receptor 1 [1])	Ki (Cannabinoid receptor 1 [2])	Ki (D(2) dopamine receptor)
CCCN(CCc1ccc(NC(=O)CCC(=O)NCCOCCOCC(=O)NCCOCCOCC(=O)NCCCC[C@H](NC(C)=O)C(=O)NCCCC[C@H](NC(C)=O)C(=O)NCCCCCCNC(=O)c2nn(-c3ccc(Cl)cc3Cl)c(-c3ccc(Cl)cc3)c2C)cc1)C1CCc2c(O)cccc2C1 (some centres undefined)	33%		0.0011 µM
CC(=O)OCCC#Cc1ccc(-c2c(C)c(C(=O)NN3CCCCC3)nn2-c2ccc(Cl)cc2Cl)cc1	100%	0.011 µM	
CC(=O)N[C@@H](CCCCNC(=O)COCCOCCNC(=O)COCCOCCNC(=O)c1nn(-c2ccc(Cl)cc2Cl)c(-c2ccc(Cl)cc2)c1C)C(=O)NCCCC[C@H](NC(C)=O)C(=O)NCCCCCCNC(=O)c1nn(-c2ccc(Cl)cc2Cl)c(-c2ccc(Cl)cc2)c1C	29%		
Cc1c(C(=O)NN2CCCCC2)nn(CCCCCC(=O)NCCCCCC(=O)O)c1-c1ccc(Cl)cc1	13%		
CCOC(=O)c1ccc(CNC(=O)c2nn(-c3ccc(Cl)cc3Cl)c(-c3ccc(Cl)cc3)c2C)cc1		0.0082 µM	
CC(=O)NCCCCCC(=O)NCc1ccc(C(=O)NCCCCCC(=O)NCCCCCC(=O)NCc2ccc(C(=O)NCCCCCC(=O)NCCCCCCNC(=O)c3nn(-c4ccc(Cl)cc4Cl)c(-c4ccc(Cl)cc4)c3C)cc2)cc1	0%		
Cc1c(C(=O)NN2CCCCC2)nn(CCCCCC(=O)O)c1-c1ccc(Cl)cc1	10%		
CC(=O)NCCCC[C@H](NC(C)=O)C(=O)NCCCC[C@H](NC(C)=O)C(=O)NCCCCCCNC(=O)c1nn(-c2ccc(Cl)cc2Cl)c(-c2ccc(Cl)cc2)c1C	41%		
CCCN(CCc1ccc(NC(=O)CCC(=O)NCCCCCC(=O)NCc2ccc(C(=O)NCCCCCC(=O)NCCCCCCNC(=O)c3nn(-c4ccc(Cl)cc4Cl)c(-c4ccc(Cl)cc4)c3C)cc2)cc1)C1CCc2c(O)cccc2C1 (centres undefined)	33%		0.0022 µM
Cc1c(C(=O)NN2CCCCC2)nn(CCCCCC(=O)OC(C)(C)C)c1-c1ccc(Cl)cc1	37%		
Cc1c(C(=O)NN2CCCCC2)nn(-c2ccc(Cl)cc2Cl)c1-c1ccc(C#CCCO)cc1	98%	0.18 µM	
CC(=O)NCCOCCOCC(=O)NCCCC[C@H](NC(C)=O)C(=O)NCCCC[C@H](NC(C)=O)C(=O)NCCCCCCNC(=O)c1nn(-c2ccc(Cl)cc2Cl)c(-c2ccc(Cl)cc2)c1C	37%		
CCCN(CCc1ccc(NC(=O)CCC(=O)NCCCC[C@H](NC(C)=O)C(=O)NCCCC[C@H](NC(C)=O)C(=O)NCCCCCCNC(=O)c2nn(-c3ccc(Cl)cc3Cl)c(-c3ccc(Cl)cc3)c2C)cc1)C1CCc2c(O)cccc2C1 (some centres undefined)	62%		0.00084 µM
CNC(=O)CCCCCn1nc(C(=O)NN2CCCCC2)c(C)c1-c1ccc(Cl)cc1	3%		
Cc1c(C(=O)NCCCCCCNC(=O)CCCCCNC(=O)c2ccc(CNC(=O)CCCCCNC(=O)CCCCCNC(=O)c3ccc(CNC(=O)CCCCCNC(=O)c4nn(-c5ccc(Cl)cc5Cl)c(-c5ccc(Cl)cc5)c4C)cc3)cc2)nn(-c2ccc(Cl)cc2Cl)c1-c1ccc(Cl)cc1	0%		
Cc1c(C(=O)NN2CCCCC2)nn(-c2ccc(Cl)cc2Cl)c1-c1ccc(C#CCCOC(=O)CCCCCNC(=S)Nc2ccc3c(c2)C(=O)OC32c3ccc(O)cc3Oc3cc(O)ccc32)cc1		0.26 µM	
CCCN(CCc1ccc(NC(=O)CCC(=O)NCCOCCOCC(=O)NCCCC[C@H](NC(C)=O)C(=O)NCCCC[C@H](NC(C)=O)C(=O)NCCCCCCNC(=O)c2nn(-c3ccc(Cl)cc3Cl)c(-c3ccc(Cl)cc3)c2C)cc1)C1CCc2c(O)cccc2C1 (some centres undefined)	44%		0.0024 µM
Cc1c(C(=O)NCCCCCCNC(=O)CCCCCNC(=O)c2ccc(CNC(=O)CCCCCNC(=O)c3nn(-c4ccc(Cl)cc4Cl)c(-c4ccc(Cl)cc4)c3C)cc2)nn(-c2ccc(Cl)cc2Cl)c1-c1ccc(Cl)cc1	29%		
CCCN(CCc1ccc(NC(=O)CCC(=O)NCCCCCC(=O)NCc2ccc(C(=O)NCCCCCC(=O)NCCCCCC(=O)NCc3ccc(C(=O)NCCCCCC(=O)NCCCCCCNC(=O)c4nn(-c5ccc(Cl)cc5Cl)c(-c5ccc(Cl)cc5)c4C)cc3)cc2)cc1)C1CCc2c(O)cccc2C1 (centres undefined)	0%		0.0042 µM
CC(=O)NCCOCCOCC(=O)NCCOCCOCC(=O)NCCCC[C@H](NC(C)=O)C(=O)NCCCC[C@H](NC(C)=O)C(=O)NCCCCCCNC(=O)c1nn(-c2ccc(Cl)cc2Cl)c(-c2ccc(Cl)cc2)c1C	23%		
CC(=O)N[C@@H](CCCCNC(=O)c1nn(-c2ccc(Cl)cc2Cl)c(-c2ccc(Cl)cc2)c1C)C(=O)NCCCC[C@H](NC(C)=O)C(=O)NCCCCCCNC(=O)c1nn(-c2ccc(Cl)cc2Cl)c(-c2ccc(Cl)cc2)c1C	11%		
CC(=O)N[C@@H](CCCCNC(=O)COCCOCCNC(=O)c1nn(-c2ccc(Cl)cc2Cl)c(-c2ccc(Cl)cc2)c1C)C(=O)NCCCC[C@H](NC(C)=O)C(=O)NCCCCCCNC(=O)c1nn(-c2ccc(Cl)cc2Cl)c(-c2ccc(Cl)cc2)c1C	23%		

The next lines start with results.

inhibition (Cannabinoid receptor 1 [1])	Ki (Cannabinoid receptor 1 [2])	Structure (SMILES)	Ki (D(2) dopamine receptor)
43%		Cc1c(C(=O)NCCCCCCCCCCC(=O)O)nn(-c2ccc(Cl)cc2Cl)c1-c1ccc(Cl)cc1	
	0.131 µM	COC(=O)c1ccc(-c2ccc(-c3c(C)c(C(=O)NN4CCCCC4)nn3-c3ccc(Cl)cc3Cl)cc2)cc1	
49%		COC(=O)CCCCCNC(=O)c1ccc(-c2ccc(-c3c(C)c(C(=O)NN4CCCCC4)nn3-c3ccc(Cl)cc3Cl)cc2)cc1	
66%		Cc1c(C(=O)NN2CCCCC2)nn(-c2ccc(Cl)cc2Cl)c1-c1ccc(-c2ccc(C(=O)O)cc2)cc1	
55%		CNC(=O)c1ccc(-c2ccc(-c3c(C)c(C(=O)NN4CCCCC4)nn3-c3ccc(Cl)cc3Cl)cc2)cc1	
	2.11 µM	Cc1c(C(=O)NN2CCCCC2)nn(-c2ccc(Cl)cc2Cl)c1-c1ccc(C#CCCOC(=O)CCCCCCCCCCNC(=S)Nc2ccc3c(c2)C(=O)OC32c3ccc(O)cc3Oc3cc(O)ccc32)cc1	
97%	0.045 µM	Cc1c(C(=O)NN2CCCCC2)nn(-c2ccc(Cl)cc2Cl)c1-c1ccc(C#CCCOCCCCCC(=O)OC(C)(C)C)cc1	
87%	0.097 µM	Cc1c(C(=O)NN2CCCCC2)nn(-c2ccc(Cl)cc2Cl)c1-c1ccc(C#CCCOC(=O)CCCCCCCCCCN)cc1	
33%		COC(=O)CCCCCNC(=O)CCCCCn1nc(C(=O)NN2CCCCC2)c(C)c1-c1ccc(Cl)cc1	
	0.013 µM	COC(=O)CCCCCNC(=O)c1nn(-c2ccc(Cl)cc2Cl)c(-c2ccc(Cl)cc2)c1C	
79%	0.106 µM	Cc1c(C(=O)NN2CCCCC2)nn(-c2ccc(Cl)cc2Cl)c1-c1ccc(C#CCCOC(=O)CCCCCNC(=O)OC(C)(C)C)cc1	
13%		COC(=O)CCCCCCCCCCNC(=O)CCCCCn1nc(C(=O)NN2CCCCC2)c(C)c1-c1ccc(Cl)cc1	
0%		COC(=O)CCCCCCCCCCNC(=O)c1ccc(-c2ccc(-c3c(C)c(C(=O)NN4CCCCC4)nn3-c3ccc(Cl)cc3Cl)cc2)cc1	
23%		CC(=O)NCCCCCC(=O)NCc1ccc(C(=O)NCCCCCC(=O)NCCCCCCNC(=O)c2nn(-c3ccc(Cl)cc3Cl)c(-c3ccc(Cl)cc3)c2C)cc1	
59%	1.81 µM	Cc1c(C(=O)NN2CCCCC2)nn(-c2ccc(Cl)cc2Cl)c1-c1ccc(C#CCCOC(=O)CCCCCN)cc1	
5%		COC(=O)CCCCCCCCCCNC(=O)c1nn(-c2ccc(Cl)cc2Cl)c(-c2ccc(Cl)cc2)c1C	
